Test results as given in ChEMBL document CHEMBL4052627, “An overview of azoles targeting sterol 14α-demethylase for antileishmanial therapy” (Eur J Med Chem, 2017).
Values after ≈ are worked out from the molar mass of the structure shown.

How the values were obtained:
[1] = test system: Leishmania major; assay: Antileishmanial activity against Leishmania major MHOM/SA/85/JISH118 promastigote forms after 44 hrs by Alamar Blue assay; format: functional; settings: MHOM/SA/85/JISH118, 44 h
[2] = test system: Leishmania major; assay: Antileishmanial activity against Leishmania major MHOM/SA/85/JISH118 promastigote forms after 48 hrs by flow cytometric analysis; format: functional; settings: MHOM/SA/85/JISH118, 48 h
[3] = test system: Leishmania major; assay: Antileishmanial activity against Leishmania major MHOM/SA/85/JISH118 axenic amastigote forms after 44 to 46 hrs by Alamar Blue assay; format: functional
[4] = test system: Leishmania tropica; assay: Antileishmanial activity against Leishmania tropica amastigote forms infected in human monocyte-derived macrophage assessed as reduction in parasite infection at 2 ug/ml relative to control; format: functional; parameters: scale not given: the % may be the effect or the level left
[5] = test system: Leishmania donovani; assay: Antileishmanial activity against Leishmania donovani MHOM/IN/80/Dd8 amastigote forms infected in mouse J774A.1 cells assessed as reduction in parasite infection after 72 hrs by luciferase reporter gene assay; format: functional, cell-based; settings: MHOM/IN/80/Dd8, J774.A1, 72 h
[6] = test system: Leishmania donovani; assay: Antileishmanial activity against Leishmania donovani MHOM/IN/80/Dd8 amastigote forms infected in golden hamster assessed as inhibition in parasite infection in spleen at 50 mg/kg, ip administered for 5 days measured at day 7 post treatment by giemsa-staining based assay relative to control; format: functional; settings: MHOM/IN/80/Dd8, ip
[7] = Selectivity index, ratio of CC50 for mouse J774A.1 cells to IC50 for Leishmania donovani MHOM/IN/80/Dd8 amastigote forms infected in mouse J774A.1 cells; format: toxicity, cell-based; settings: read-out: Ratio CC50/IC50
[8] = test system: Leishmania mexicana; assay: Antileishmanial activity against Leishmania mexicana MHOM/MX/95/NAN1 axenic amastigote forms after 96 hrs by uptiblue-based spectrofluorimetric analysis; format: functional; settings: MHOM/MX/95/NAN1, 96 h
[9] = test system: Leishmania mexicana; assay: Antileishmanial activity against Leishmania mexicana MHOM/MX/95/NAN1 amastigote forms infected in Balb/c mouse peritoneal macrophages after 48 hrs by May-Grunwald-Giemsa staining-based assay; format: functional; settings: MHOM/MX/95/NAN1, 48 h
[10] = test system: Leishmania major; assay: (§1) Antileishmanial activity against Leishmania major MHOM/SEN/96/NAN2 stationary phase promastigote forms infected in BALB/c mouse assessed as reduction in parasite burden in spleen at 10 mg/kg, ip qd administered for 5 consecutive days measured after 50 days by May-Grunwald-Giemsa staining-based method relative to control; format: functional; parameters: scale not given: the % may be the effect or the level left
[11] = test system: Leishmania major; assay: as §1, with “liver” for “spleen”; format: functional; parameters: scale not given: the % may be the effect or the level left
[12] = test system: Leishmania major; assay: as §1, with “popliteal node” for “spleen”; format: functional; parameters: scale not given: the % may be the effect or the level left
[13] = Cytotoxicity against mouse J774A.1 cells assessed as reduction in cell viability after 2 mins by trypan blue dye-light microscopic analysis; format: cell-based, J774.A1
[14] = test system: Leishmania major; assay: Antileishmanial activity against Leishmania major MRHO/IR/75/ER amastigote forms infected in mouse J774A.1 cells after 60 hrs by giemsa-staining based light microscopic analysis; format: functional, cell-based; settings: J774.A1, 60 h
[15] = test system: Leishmania major; assay: Antileishmanial activity against Leishmania major MRHO/IR/75/ER promastigote forms after 72 hrs by MTT assay; format: functional
[16] = test system: Leishmania braziliensis; assay: Antileishmanial activity against Leishmania braziliensis MHOM/BR/75/M2903 promastigotes forms in presence of terbinafine by trypan blue-staining based light microscopy; format: functional
[17] = test system: Leishmania chagasi; assay: Antileishmanial activity against Leishmania infantum chagasi MHOM/BR/1972/LD promastigote forms infected in golden hamster after 48 hrs by Alamar Blue assay; format: functional
[18] = Cytotoxicity against mouse NCTC-929 cells assessed as reduction in cell viability after 48 hrs by Alamar Blue assay; format: cell-based; settings: NCTC-929, 48 h
[19] = test system: Leishmania chagasi; assay: Antileishmanial activity against Leishmania infantum chagasi MHOM/BR/1972/LD amastigote forms infected in BALB/c mouse macrophage after 120 hrs by giemsa-staining based light microscopic analysis; format: functional
[20] = test system: Leishmania donovani; assay: Leishmanicidal activity against Leishmania donovani 1S MHOM/SD/00/1S-2D promastigote forms after 18 hrs by indirect microscopic analysis; format: functional
[21] = test system: Leishmania amazonensis; assay: Leishmanicidal activity against Leishmania amazonensis JOSEPHA promastigote forms after 18 hrs by indirect microscopic analysis; format: functional
[22] = test system: Leishmania major; assay: Leishmanicidal activity against Leishmania major KK promastigote forms after 18 hrs by indirect microscopic analysis; format: functional
[23] = test system: Leishmania mexicana; assay: Leishmanicidal activity against Leishmania mexicana 68 promastigote forms after 18 hrs by indirect microscopic analysis; format: functional; settings: Leishmania mexicana, 68, 18 h
[24] = test system: Leishmania mexicana; assay: Leishmanicidal activity against Leishmania mexicana 390 promastigote forms after 18 hrs by indirect microscopic analysis; format: functional; settings: Leishmania mexicana, 390, 18 h
[25] = test system: Leishmania panamensis; assay: Leishmanicidal activity against Leishmania panamensis LS94 promastigote forms after 18 hrs by indirect microscopic analysis; format: functional; settings: LS94, 18 h
[26] = test system: Leishmania panamensis; assay: Leishmanicidal activity against Leishmania panamensis L334 promastigotes forms after 18 hrs by indirect microscopic analysis; format: functional; settings: L334, 18 h
[27] = test system: Leishmania amazonensis; assay: Antileishmanial activity against Leishmania amazonensis LV78 promastigotes forms after 8 days; format: functional; settings: LV78, 192 h
[28] = test system: Leishmania major; assay: Antileishmanial activity against Leishmania major MHOM/SN/74/Seidman promastigote forms after 8 days; format: functional; settings: 192 h
[29] = test system: Leishmania donovani; assay: Antileishmanial activity against Leishmania donovani […] promastigote forms after 8 days; format: functional; settings: 192 h
[30] = test system: Leishmania major; assay: Antileishmanial activity against Leishmania major infected in human assessed as healing of lesions at 200 mg/day, po administered for 6 weeks (reference value: 34%); format: functional
[31] = test system: Leishmania braziliensis; assay: Antileishmanial activity against Leishmania (Viannia) braziliensis infected in human assessed as cure rate at 5 to 8 mg/kg/day, po for 4 weeks; format: functional
[32] = test system: Leishmania major; assay: Antileishmanial activity against wild type Leishmania major LV39 Rho/SU/59/P promastigote forms after 48 hrs; format: functional
[33] = test system: Leishmania major; assay: Antileishmanial activity against Leishmania major LV39 Rho/SU/59/P promastigote forms harboring C14DM null mutant after 48 hrs; format: functional
[34] = test system: Leishmania tropica; assay: Antileishmanial activity against Leishmania tropica amastigote forms infected in human monocyte-derived macrophage assessed as reduction in parasite infection at 15 ug/ml relative to control; format: functional; parameters: scale not given: the % may be the effect or the level left
[35] = test system: Leishmania mexicana; assay: Antileishmanial activity against Leishmania mexicana Walter Reed 227 promastigote forms assessed as reduction in promastigotes sterol biosynthesis at 10 nM after 24 hrs in presence of [2-14C]mevalonate by liquid scintillation spectrometry analysis relative to control; format: functional; parameters: scale not given: the % may be the effect or the level left
[36] = test system: Leishmania amazonensis; assay: Antileishmanial activity against Leishmania amazonensis LV78 axenic amastigote forms after 8 days; format: functional; settings: LV78, 192 h

With `Cc1ccc(OCCCCn2ccnc2)c(Cl)c1` the EC50 [1] was 0.21 µM, the EC50 [2] was 0.34 µM and the EC50 [3] was 11.7 µM.

Compound `Clc1ccc([C@@]2(Cn3ccnc3)OC[C@H](COc3ccc(N4CCNCC4)cc3)O2)c(Cl)c1` has an Activity [4] of 85%.

For `Clc1cccc(CO/N=C2/c3cccc(Cl)c3CCC2Cn2ccnc2)c1` (stereo unspecified), the IC50 [5] was 2.32 µM, the inhibition in vivo at 50 mg/kg [6] was 70% and the selectivity ratio [7] was 25.6.

Work on `CCn1cc(C(c2ccc(Cl)cc2Cl)n2ccnc2)c2cc(Br)ccc21` (stereo unspecified) yielded an IC50 [8] of 4.4 µM, an IC50 [9] of under 1 µM and an Activity [10] of 98.9%. For the same compound, the Activity [11] was 79% and the Activity [12] was 49.9%.

`O/N=C1/c2ccccc2OC(c2ccc(Cl)cc2)C1n1ccnc1` (stereo unspecified) showed a CC50 at 2 min [13] of 355 µM and an IC50 [14] of 0.6 µM.

In the case of `O/N=C1/c2ccccc2OC(c2cccc(Cl)c2)C1n1ccnc1` (stereo unspecified), the IC50 [15] is reported as 26.2 µM.

`O[C@](Cn1cncn1)(Cn1cnc(/C=C/c2ccc(OCC(F)(F)C(F)F)cc2)n1)c1ccc(F)cc1F` gave an MIC [16] of 0.03 µM.

`c1ccc(-c2ccc(C(c3ccccc3)n3ccnc3)cc2)cc1` (stereo unspecified) [BIFONAZOLE] showed an IC50 [17] of 8.97 µM and an IC50 [18] of 39.2 to 42.7 µM.

For `Clc1ccccc1C(c1ccccc1)(c1ccccc1)n1ccnc1` [CLOTRIMAZOLE], the IC50 [17] was 2.81 µM and the IC50 [18] was 39.2 to 42.7 µM.

`Clc1ccc(COC(Cn2ccnc2)c2ccc(Cl)cc2Cl)cc1` (stereo unspecified) [ECONAZOLE] showed an IC50 [17] of 5.36 µM, an IC50 [19] of 11 µM and an IC50 [18] of 39.2 to 42.7 µM.

Work on `OC(Cn1cncn1)(Cn1cncn1)c1ccc(F)cc1F` [FLUCONAZOLE] yielded an MIC [20] of 104 µM (≈ 32 µg/mL), an MIC [21] of 104 µM (≈ 32 µg/mL) and an MIC [22] of 104 µM (≈ 32 µg/mL). For the same compound, the MIC [23] was 104 µM (≈ 32 µg/mL), the MIC [24] was 104 µM (≈ 32 µg/mL) and the MIC [25] was 104 µM (≈ 32 µg/mL). The MIC [26] was 104 µM (≈ 32 µg/mL), the IC50 [27] was over 163 µM and the IC50 [28] was over 163 µM. For the same compound, the IC50 [29] was over 163 µM, the Activity [30] was 79% and the Activity [31] was 75 - 100%.

`CCC(C)n1ncn(-c2ccc(N3CCN(c4ccc(OCC5COC(Cn6cncn6)(c6ccc(Cl)cc6Cl)O5)cc4)CC3)cc2)c1=O` (stereo unspecified) [ITRACONAZOLE] gave an IC50 [32] of 0.4 µM and an IC50 [33] of 2 µM.

`CC(=O)N1CCN(c2ccc(OCC3COC(Cn4ccnc4)(c4ccc(Cl)cc4Cl)O3)cc2)CC1` (stereo unspecified) [KETOCONAZOLE] gave an Activity [34] of 85%, an Activity [35] of 50% and an MIC [16] of 0.03 µM. For the same compound, the IC50 [27] was 0.55 to 3.54 µM, the IC50 [28] was 0.55 to 3.54 µM and the IC50 [29] was 0.55 to 3.54 µM. The IC50 [36] was 3.14 µM and the IC50 [14] was 12.8 µg/mL.

For `CC[C@@H]([C@H](C)O)n1ncn(-c2ccc(N3CCN(c4ccc(OC[C@@H]5CO[C@@](Cn6cncn6)(c6ccc(F)cc6F)C5)cc4)CC3)cc2)c1=O` [POSACONAZOLE], the MIC [20] was 11.4 to 22.8 µM (≈ 7.99 to 16 µg/mL), the MIC [21] was 11.4 to 22.8 µM (≈ 7.99 to 16 µg/mL) and the MIC [22] was 11.4 to 22.8 µM (≈ 7.99 to 16 µg/mL). It also gave an MIC [23] of 11.4 to 22.8 µM (≈ 7.99 to 16 µg/mL), an MIC [24] of 11.4 to 22.8 µM (≈ 7.99 to 16 µg/mL) and an MIC [25] of 11.4 to 22.8 µM (≈ 7.99 to 16 µg/mL). It also gave an MIC [26] of 11.4 to 22.8 µM (≈ 7.99 to 16 µg/mL).

`C[C@@H](c1ncncc1F)[C@](O)(Cn1cncn1)c1ccc(F)cc1F` [VORICONAZOLE] showed an IC50 [27] of 6.1 to 10.4 µM, an IC50 [28] of 6.1 to 10.4 µM and an IC50 [29] of 6.1 to 10.4 µM. The IC50 [36] was 5.84 µM.
